Test results as given in the supplement of paper PMC10307832.

What was measured:
Experiment in all cases: relative viability (nuclei count vs DMSO), 5 days (fraction); higher = more cells survive
[1] = tested on: SK-MES-1
How it was run: (§1)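 Lung cancer cell lines were seeded in 1536-well plates and dosed by pin tool the next day, with either a single drug or a fixed anchor-drug dose combined with five library-drug doses (not always all listed) spaced in √10 steps. Five days later, one step fixed the cells and stained their nuclei (final 0.05% Triton X-100, 1% formaldehyde, 1 ug/ml Hoechst), and nuclei were counted on 4× images. Relative viability is the nuclei count in treated wells divided by the count in vehicle wells, and each value is the median of duplicate plates.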

[2] = tested on: COR-L23
How it was run: as §1

[3] = tested on: SW 1573
How it was run: as §1

[4] = tested on: SK-LU-1
How it was run: as §1

[5] = tested on: NCI-H3122
How it was run: as §1

[6] = tested on: NCI-H1793
How it was run: as §1

[7] = tested on: ABC-1
How it was run: as §1

[8] = tested on: HOP-62
How it was run: as §1

[9] = tested on: NCI-H1993
How it was run: as §1

[10] = tested on: SW 900
How it was run: as §1

[11] = tested on: LK-2
How it was run: as §1

[12] = tested on: NCI-H2170
How it was run: as §1

[13] = tested on: NCI-H2009
How it was run: as §1

[14] = tested on: PC-3 [JPC-3]
How it was run: as §1

[15] = tested on: NCI-H1792
How it was run: as §1

[16] = tested on: A-427
How it was run: as §1

[17] = tested on: NCI-H2228
How it was run: as §1

[18] = tested on: LXF-289
How it was run: as §1

[19] = tested on: HARA
How it was run: as §1

[20] = tested on: NCI-H596
How it was run: as §1

[21] = tested on: NCI-H727
How it was run: as §1

[22] = tested on: NCI-H1944
How it was run: as §1

[23] = tested on: EMC-BAC-2
How it was run: as §1

CC1(C)CCC(c2ccc(Cl)cc2)=C(CN2CCN(c3ccc(C(=O)NS(=O)(=O)c4ccc(N[C@H](CCN5CCOCC5)CSc5ccccc5)c(S(=O)(=O)C(F)(F)F)c4)cc3)CC2)C1 [Navitoclax] + COc1cccc2cc(-c3nc([C@H]4CC[C@H](C(=O)O)CC4)n4ncnc(N)c34)[nH]c12 [OSI-027] (partner 0.5 µM)
relative viability ([1]; first compound 0.005 µM): 0.624
relative viability ([1]; first compound 0.01581 µM): 0.681
relative viability ([1]; first compound 0.05 µM): 0.525
relative viability ([1]; first compound 0.1581 µM): 0.579
relative viability ([1]; first compound 0.5 µM): 0.63
relative viability ([2]; first compound 0.005 µM): 0.839
relative viability ([2]; first compound 0.01581 µM): 0.814
relative viability ([2]; first compound 0.05 µM): 0.877
relative viability ([2]; first compound 0.1581 µM): 0.785
relative viability ([2]; first compound 0.5 µM): 0.779
relative viability ([3]; first compound 0.005 µM): 0.762
relative viability ([3]; first compound 0.01581 µM): 0.782
relative viability ([3]; first compound 0.05 µM): 0.638
relative viability ([3]; first compound 0.1581 µM): 0.562
relative viability ([3]; first compound 0.5 µM): 0.576
relative viability ([4]; first compound 0.005 µM): 0.374
relative viability ([4]; first compound 0.01581 µM): 0.429
relative viability ([4]; first compound 0.05 µM): 0.347
relative viability ([4]; first compound 0.1581 µM): 0.374
relative viability ([4]; first compound 0.5 µM): 0.319
relative viability ([5]; first compound 0.005 µM): 0.98
relative viability ([5]; first compound 0.01581 µM): 0.949
relative viability ([5]; first compound 0.05 µM): 1.04
relative viability ([5]; first compound 0.1581 µM): 0.902
relative viability ([5]; first compound 0.5 µM): 0.978
relative viability ([6]; first compound 0.005 µM): 0.267
relative viability ([6]; first compound 0.01581 µM): 0.414
relative viability ([6]; first compound 0.1581 µM): 0.273
relative viability ([6]; first compound 0.5 µM): 0.261
relative viability ([7]; first compound 0.005 µM): 0.506
relative viability ([7]; first compound 0.01581 µM): 0.637
relative viability ([7]; first compound 0.05 µM): 0.397
relative viability ([7]; first compound 0.1581 µM): 0.572
relative viability ([7]; first compound 0.5 µM): 0.356
relative viability ([8]; first compound 0.005 µM): 0.734
relative viability ([8]; first compound 0.01581 µM): 0.971
relative viability ([8]; first compound 0.05 µM): 0.863
relative viability ([8]; first compound 0.1581 µM): 0.648
relative viability ([8]; first compound 0.5 µM): 0.894
relative viability ([9]; first compound 0.005 µM): 0.566
relative viability ([9]; first compound 0.01581 µM): 0.523
relative viability ([9]; first compound 0.05 µM): 0.551
relative viability ([9]; first compound 0.1581 µM): 0.523
relative viability ([9]; first compound 0.5 µM): 0.607
relative viability ([10]; first compound 0.005 µM): 0.497
relative viability ([10]; first compound 0.01581 µM): 0.681
relative viability ([10]; first compound 0.05 µM): 0.534
relative viability ([10]; first compound 0.1581 µM): 0.395
relative viability ([10]; first compound 0.5 µM): 0.546
relative viability ([11]; first compound 0.005 µM): 0.204
relative viability ([11]; first compound 0.01581 µM): 0.256
relative viability ([11]; first compound 0.05 µM): 0.182
relative viability ([11]; first compound 0.1581 µM): 0.174
relative viability ([11]; first compound 0.5 µM): 0.193
relative viability ([12]; first compound 0.005 µM): 0.669
relative viability ([12]; first compound 0.01581 µM): 0.814
relative viability ([12]; first compound 0.05 µM): 0.787
relative viability ([12]; first compound 0.1581 µM): 0.647
relative viability ([12]; first compound 0.5 µM): 0.551
relative viability ([13]; first compound 0.005 µM): 0.598
relative viability ([13]; first compound 0.01581 µM): 0.792
relative viability ([13]; first compound 0.05 µM): 0.576
relative viability ([13]; first compound 0.1581 µM): 0.643
relative viability ([13]; first compound 0.5 µM): 0.735
relative viability ([14]; first compound 0.005 µM): 0.844
relative viability ([14]; first compound 0.01581 µM): 0.764
relative viability ([14]; first compound 0.05 µM): 0.768
relative viability ([14]; first compound 0.1581 µM): 0.809
relative viability ([14]; first compound 0.5 µM): 0.703
relative viability ([15]; first compound 0.005 µM): 0.747
relative viability ([15]; first compound 0.01581 µM): 0.799
relative viability ([15]; first compound 0.05 µM): 0.667
relative viability ([15]; first compound 0.1581 µM): 0.726
relative viability ([15]; first compound 0.5 µM): 0.705
relative viability ([16]; first compound 0.005 µM): 0.485
relative viability ([16]; first compound 0.01581 µM): 0.525
relative viability ([16]; first compound 0.05 µM): 0.444
relative viability ([16]; first compound 0.1581 µM): 0.477
relative viability ([16]; first compound 0.5 µM): 0.392
relative viability ([17]; first compound 0.005 µM): 0.586
relative viability ([17]; first compound 0.01581 µM): 0.726
relative viability ([17]; first compound 0.1581 µM): 0.53
relative viability ([17]; first compound 0.5 µM): 0.5
relative viability ([18]; first compound 0.005 µM): 0.77
relative viability ([18]; first compound 0.01581 µM): 0.867
relative viability ([18]; first compound 0.05 µM): 0.731
relative viability ([18]; first compound 0.1581 µM): 0.753
relative viability ([18]; first compound 0.5 µM): 0.795
relative viability ([19]; first compound 0.005 µM): 0.538
relative viability ([19]; first compound 0.01581 µM): 0.684
relative viability ([19]; first compound 0.1581 µM): 0.66
relative viability ([19]; first compound 0.5 µM): 0.459
relative viability ([20]; first compound 0.005 µM): 0.765
relative viability ([20]; first compound 0.01581 µM): 0.684
relative viability ([20]; first compound 0.1581 µM): 0.953
relative viability ([20]; first compound 0.5 µM): 0.8
relative viability ([21]; first compound 0.005 µM): 0.675
relative viability ([21]; first compound 0.01581 µM): 0.692
relative viability ([21]; first compound 0.1581 µM): 0.663
relative viability ([21]; first compound 0.5 µM): 0.728
relative viability ([22]; first compound 0.005 µM): 0.401
relative viability ([22]; first compound 0.01581 µM): 0.495
relative viability ([22]; first compound 0.05 µM): 0.364
relative viability ([22]; first compound 0.1581 µM): 0.376
relative viability ([22]; first compound 0.5 µM): 0.419
relative viability ([23]; first compound 0.005 µM): 0.392
relative viability ([23]; first compound 0.01581 µM): 0.362
relative viability ([23]; first compound 0.05 µM): 0.382
relative viability ([23]; first compound 0.1581 µM): 0.351
relative viability ([23]; first compound 0.5 µM): 0.372
